Source: ChEMBL document CHEMBL1201862, “PubChem BioAssay data set” (2004)
Calls of active or inactive are those of the source.

Legend:
Cytochrome P450 1A2 = target: T1, Cytochrome P450 1A2 (Homo sapiens, UniProt P05177);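 further: PubChem cytochrome P450 panel assay, CYP1A2 panel member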
T1 sequence (P05177 whole entry): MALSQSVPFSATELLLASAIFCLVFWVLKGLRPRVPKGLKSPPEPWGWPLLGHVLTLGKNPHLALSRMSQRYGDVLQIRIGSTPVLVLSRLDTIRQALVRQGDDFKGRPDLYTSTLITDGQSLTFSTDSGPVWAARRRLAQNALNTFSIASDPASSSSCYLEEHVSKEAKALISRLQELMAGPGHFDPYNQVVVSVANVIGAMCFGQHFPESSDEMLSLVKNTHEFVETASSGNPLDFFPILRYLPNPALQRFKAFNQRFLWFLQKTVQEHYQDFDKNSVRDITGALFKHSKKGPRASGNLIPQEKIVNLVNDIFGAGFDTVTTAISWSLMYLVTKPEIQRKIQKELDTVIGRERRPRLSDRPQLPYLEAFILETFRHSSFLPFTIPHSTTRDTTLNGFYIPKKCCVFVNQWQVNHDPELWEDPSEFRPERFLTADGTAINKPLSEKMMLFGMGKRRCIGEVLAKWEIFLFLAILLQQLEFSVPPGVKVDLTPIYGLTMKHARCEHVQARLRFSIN

[1] = NIH3T3 cell viability loss – ATP luminescence, mouse fibroblasts, counter-screen, dose response (AID 2010); type: functional, cell-based;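 further: cells exposed to compound for about 90 hours before reading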
[2] = Trypanosoma cruzi growth suppression in host cells – NIH3T3 host cells, beta-gal luminescence, confirmation (AID 2044); type: functional, cell-based;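 further: intracellular parasites grown in NIH/3T3 mouse fibroblasts as host cells; luminescent beta-galactosidase reporter signal from transgenic T. cruzi replicating inside host cells; inhibitors lower the luminescence signal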
Cytochrome P450 2C19 = Cytochrome P450 2C19 (Homo sapiens, UniProt P33261); assay: Cytochrome panel assay with activity outcomes. Panel member name: p450-cyp2c19 Compounds with AC50 equal or less than 10 uM are considered active; type: functional
[3] = test system: Streptococcus sp. 'group A'; assay: Streptococcus pyogenes SK(-)GAS viability under kanamycin – luminescence, BacTiterGlo, confirmation, counter-screen for streptokinase expression inhibitor project, dose response (AID 1900); type: functional, organism-based
Streptokinase A = target: T2, Streptokinase A (Streptococcus pyogenes serotype M1, UniProt P10520); assay: viability-normalized secreted streptokinase activity reduction – plasminogen activation absorbance, OD405, dose response (AID 1914); type: functional, Streptococcus pyogenes M1 GAS;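 further: secreted streptokinase activity via plasminogen activation per viability signal from cell pellet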
T2 sequence (P10520 whole entry): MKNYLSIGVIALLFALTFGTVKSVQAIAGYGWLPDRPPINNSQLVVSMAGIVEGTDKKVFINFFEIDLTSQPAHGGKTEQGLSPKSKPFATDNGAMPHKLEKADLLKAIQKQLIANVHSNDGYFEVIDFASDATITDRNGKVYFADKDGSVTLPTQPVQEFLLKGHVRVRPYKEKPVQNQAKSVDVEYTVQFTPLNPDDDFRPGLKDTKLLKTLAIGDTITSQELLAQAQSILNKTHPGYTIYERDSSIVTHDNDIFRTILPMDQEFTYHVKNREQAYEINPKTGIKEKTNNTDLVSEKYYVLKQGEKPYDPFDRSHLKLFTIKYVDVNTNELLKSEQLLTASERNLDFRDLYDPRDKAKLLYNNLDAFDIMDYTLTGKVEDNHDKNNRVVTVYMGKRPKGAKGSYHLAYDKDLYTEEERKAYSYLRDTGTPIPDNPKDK

Streptococcus = assay: GAS UMAA2166 growth inhibition – luminescence, BacTiterGlo, counter-screen for streptokinase expression inhibitor project, dose response (AID 1915); type: functional, organism-based;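 further: potency for reduction of bacterial viability or growth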
[4] = Luminescence Cell-Based Dose Response HTS to Identify Activators of Luciferase Translation or Activity in H4 […] Cells. [Related pubchem assays: 1829 (Project Summary), 1814 (Primary HTS)]; type: functional
H4 = assay: Luminescence Cell-Based Dose Response HTS to Identify Activators of 5'UTR Stem-Loop Driven Prion Protein mRNA Translation in H4 Neuroglioblastoma Cells. [Related pubchem assays: 1829 (Project Summary), 1814 (Primary HTS)]; type: functional; settings: Homo sapiens

Cytochrome P450 2C19, sequence (P33261 whole entry): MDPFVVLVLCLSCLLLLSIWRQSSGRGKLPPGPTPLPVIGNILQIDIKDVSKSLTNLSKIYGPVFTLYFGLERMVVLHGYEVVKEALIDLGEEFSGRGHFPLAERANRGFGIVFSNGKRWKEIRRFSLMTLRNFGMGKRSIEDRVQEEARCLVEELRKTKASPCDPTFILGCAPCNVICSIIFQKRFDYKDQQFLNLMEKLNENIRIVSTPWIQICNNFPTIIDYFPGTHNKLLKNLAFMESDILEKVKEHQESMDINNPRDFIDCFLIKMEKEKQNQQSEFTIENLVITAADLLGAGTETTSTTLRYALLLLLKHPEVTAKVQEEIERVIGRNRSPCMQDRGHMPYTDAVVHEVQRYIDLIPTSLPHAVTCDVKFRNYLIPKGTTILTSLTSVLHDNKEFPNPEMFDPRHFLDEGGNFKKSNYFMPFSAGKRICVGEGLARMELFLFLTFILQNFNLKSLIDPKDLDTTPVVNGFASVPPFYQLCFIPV

Compound: NCCc1ccc(S(=O)(=O)F)cc1
- AC50 (Cytochrome P450 1A2): 15.8 µM (inconclusive)

Compound: Cc1ccc(Nc2ccc([N+](=O)[O-])nc2[N+](=O)[O-])cc1
- EC50 [1]: > 60 µM (not active)
- EC50 [2]: 1.57 µM (active)

Compound: CCOC(=O)c1cnn(-c2cc(Oc3ccccc3)ncn2)c1N
- AC50 (Cytochrome P450 1A2): 14.1 µM (inconclusive)
- AC50 (Cytochrome P450 2C19; read-out: AC50): 31.6 µM (inconclusive)

Compound: Cc1ccc(S(=O)(=O)N(C(=N)N)c2nc(N(C)C)nc(N(C)C)n2)cc1
- EC50 [1]: > 60 µM (not active)
- EC50 [2]: 0.879 µM (active)

Compound: C[C@@H](Cc1ccccc1)NCCC(c1ccccc1)c1ccccc1
- AC50 (Cytochrome P450 1A2): 15.8 µM (inconclusive)
- AC50 (Cytochrome P450 2C19; read-out: AC50): 7.94 µM (inconclusive)

Compound: CCOc1ccc(CN2CCN(Cc3cccc4nonc34)CC2CCO)cc1 (stereo not drawn)
- EC50 [1]: > 60 µM (not active)
- EC50 [2]: 0.559 µM (active)

Compound: CCCCCCn1c(=O)c(C(=O)Nc2c(C)n(C)n(-c3ccccc3)c2=O)c(O)c2ccccc21
- EC50 [3]: 3.09 µM (active)
- EC50 (Streptokinase A): 3.63 µM (active)
- EC50 (Streptococcus): 8.06 µM (active)

Compound: Oc1ccc(-c2nc3c4c(ncn3n2)-c2ccccc2CC42CCCC2)cc1
- EC50 [3]: 0.909 µM (active)
- EC50 (Streptococcus): 0.936 µM (active)

Compound: CCSc1n[nH]c2c3cccc(C)c3nc-2n1
- EC50 [4]: 2.08 µM (active)
- EC50 (H4): > 120 µM (not active)

Compound: CCN1CCC2(CC1)NC(CO)(CO)CO2
- AC50 (Cytochrome P450 2C19): inconclusive

Compound: CCN=C(S)NNC(=O)c1cc(C)on1
- AC50 (Cytochrome P450 2C19; read-out: AC50): 7.94 µM (inconclusive)

Compound: Cc1c(Cl)cccc1NC(=O)COC(=O)c1c2c(nc3ccccc13)CCN(Cc1ccccc1)C2
- EC50 [1]: > 60 µM (not active)
- EC50 [2]: 1.63 µM (active)

Compound: CC(C)(C)CNC(CO)C12CC3CC(CC(C3)C1)C2 (stereo not drawn)
- AC50 (Cytochrome P450 2C19; read-out: AC50): 15.8 µM (inconclusive)

Compound: COc1ccc(CCNC(=O)CCCCCN2C(=O)c3ccccc3C2=O)cc1
- AC50 (Cytochrome P450 1A2): 25.1 µM (inconclusive)

Compound: c1ccc(Nc2ccc3c4c(cccc24)CC3)cc1
- EC50 [1]: 59.5 µM (active)
- EC50 [2]: 0.97 µM (active)

Compound: CCOC(=O)c1ccc(OC(=O)CCCCCNC(=N)N)cc1
- AC50 (Cytochrome P450 1A2): 12.6 µM (inconclusive)

Compound: COc1ccc(-c2cc3n(n2)CCc2nc4ccccc4n2-3)cc1
- EC50 [4]: 10.5 µM (active)
- EC50 (H4): 12.5 µM (active)

Compound: O=C(NCc1ccccc1)C(=O)NCC1OCCN1S(=O)(=O)c1ccc([N+](=O)[O-])cc1 (stereo not drawn)
- EC50 [1]: > 60 µM (not active)
- EC50 [2]: 0.782 µM (active)

Compound: CCCCCCOC(=O)C(C#N)c1nc2ccccc2nc1N1CCN(C)CC1 (stereo not drawn)
- EC50 [1]: 11.3 µM (active)
- EC50 [2]: 2.57 µM (active)

Compound: COC(=O)[C@@]1(Cc2ccc(F)cc2)[C@@H]2[C@@H](CC(=O)[C@H]2CC(=O)C(=O)N(C)C)CN1C(=O)c1ccccc1
- AC50 (Cytochrome P450 2C19; read-out: AC50): 39.8 µM (inconclusive)

Compound: COc1ccccc1OCCCn1c(C)c(C#N)c2ccccc21
- EC50 [3]: 21.2 µM (active)
- EC50 (Streptokinase A): 23.2 µM (active)
- EC50 (Streptococcus): > 150 µM (not active)

Compound: Cc1cccc(N2CCN(C(=O)C34CC5CC(CC(C5)C3)C4)CC2)c1C
- EC50 [3]: 3.81 µM (active)
- EC50 (Streptokinase A): 15.2 µM (active)
- EC50 (Streptococcus): 11.3 µM (active)

Compound: COC(=O)C1=CN(c2ccc(OC)cc2)C=C(C(=O)OC)C1c1ccc([N+](=O)[O-])cc1
- EC50 [1]: > 30 µM (not active)
- EC50 [2]: 1.94 µM (active)

Compound: Cn1c(O)c(C(c2ccccn2)c2c(O)n(C)c(=S)[nH]c2=O)c(=O)[nH]c1=S
- AC50 (Cytochrome P450 2C19; read-out: AC50): 0.316 µM (inconclusive)

Compound: Cc1ccc(C)c(C(=O)COC(=O)c2cc(Cl)nc3ccccc23)c1
- EC50 [3]: 60.6 µM (active)
- EC50 (Streptokinase A): 19.4 µM (active)
- EC50 (Streptococcus): > 150 µM (not active)

Compound: O=C(NCCCN1CCCC1)C1CCN(C(=O)c2cc3sccc3n2Cc2ccc(F)cc2)CC1
- EC50 [1]: > 60 µM (not active)
- EC50 [2]: 1.32 µM (active)
